These results are taken from US10918716B2, “Triple combination therapy for treating Crohn's disease” (Millennium Pharmaceuticals, Inc., priority 2016, dated 2021).

Data set [1] deals with patients with CD. Conditions: cited from earlier work.
Data set [2] deals with T1, lymphotoxin (TNF-β) (Homo sapiens, UniProt P01374).
T1 sequence (P01374 35-205): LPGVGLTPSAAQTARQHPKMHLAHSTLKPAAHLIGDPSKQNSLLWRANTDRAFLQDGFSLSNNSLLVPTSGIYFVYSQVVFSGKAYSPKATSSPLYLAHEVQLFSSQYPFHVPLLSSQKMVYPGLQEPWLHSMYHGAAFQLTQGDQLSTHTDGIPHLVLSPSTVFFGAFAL
To be noted: cited from earlier work.

Data set [3] can be described thus: multiple-dose pharmacokinetics of vedolizumab, IV infusion, patients with UC. Conditions: dose range 2 to 10 mg/kg. Type of data set: in vivo, human. As to the method: (§1) In previous studies, single-dose pharmacokinetics, pharmacodynamics (α4β7 receptor saturation), safety, and tolerability of vedolizumab were investigated over a dose range of 0.2 to 10 mg/kg in healthy volunteers (intravenous [IV] infusion) (unpublished data). After reaching peak concentrations, vedolizumab serum concentrations fell in a generally biexponential fashion until concentrations reached approximately 1 to 10 ng/mL. Thereafter, concentrations appeared to fall in a nonlinear fashion. The multiple-dose pharmacokinetics and pharmacodynamics of vedolizumab have been investigated following IV infusions of 0.5 and 2 mg/kg in patients with CD and infusion of 2, 6, and 10 mg/kg in patients with UC.

Data set [4] has as its target T2, α4β7 receptor (Homo sapiens, UniProt P13612+P26010).
T2 construct: endogenous in cells; host or cells: lymphocytes of patients with CD or UC (in vivo)
The data set is described as follows: pharmacodynamics (α4β7 receptor saturation) after multiple-dose administration. Format: in vivo. Conditions: following the initial dose. As to the method:
as §1

Regarding Adalimumab, the maintaining clinical remission entry in data set [1] (40 mg weekly or every other week, patients with CD who responded to adalimumab induction therapy) was “effective”. Moreover, the corticosteroid-sparing effects entry in data set [1] (patients with CD) was “corticosteroid-sparing effects”. Also, the “binding or inactivation of lymphotoxin (TNF-β)” value in data set [2] was “does not bind or inactivate”.

For “vedolizumab: humanized antibody (Ig) G1 mAb directed against the human lymphocyte integrin α4β7; CAS 943609-66-3”, in data set [3], the pharmacokinetics dose linearity entry was “generally linear”. In data set [4], the α4β7 receptor saturation result is “rapid and near complete”.
